#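 Cells were grown in 96-well plates and exposed to each compound for 48 hours at five concentrations; endpoints were interpolated linearly between bracketing concentrations, or set to the highest concentration if not reached. TGI marks complete inhibition of growth.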
# What was measured:
# Assay in all cases: inhibition of tumour cell growth, NCI panel, 48 h
# [1] = system: 786-0 renal
# [2] = system: OVCAR-3 ovarian
# [3] = system: NCI-H226 lung
# [4] = system: U251 CNS
# [5] = system: HOP-62 NSCLC
# [6] = system: OVCAR-5 ovarian
# [7] = system: SK-MEL-2 melanoma
# [8] = system: M14 melanoma
# [9] = system: NCI-H23 lung
# [10] = system: HCT-15 colon
# [11] = system: SK-OV-3 ovarian
# [12] = system: MALME-3M melanoma
# [13] = system: CCRF-CEM leukemia
Compound,TGI [1],TGI [2],TGI [3],TGI [4],TGI [5],TGI [6],TGI [7],TGI [8],TGI [9],TGI [10],TGI [11],TGI [12],TGI [13]
O=c1nc2n(CCO)c(-c3ccccc3)c(-c3ccccc3)nc-2c(=O)[nH]1,> 100 µM,> 100 µM,> 100 µM,> 100 µM,> 100 µM,> 100 µM,> 100 µM,> 100 µM,> 100 µM,> 100 µM,> 100 µM,> 100 µM,> 100 µM
N#Cc1cnn2c1n[n+]([O-])c1ccc(Cl)cc12,> 100 µM,9.08 µM,49.7 µM,32.8 µM,38.6 µM,> 76.8 µM,17.2 µM,31.8 µM,12.2 µM,4.36 µM,23.8 µM,19.8 µM,4.34 µM
COc1ccc(CSCc2cc(OC)c(OC)c(OC)c2)cc1,> 100 µM,> 100 µM,> 100 µM,> 100 µM,> 100 µM,> 100 µM,> 100 µM,> 100 µM,> 100 µM,> 100 µM,> 100 µM,> 31.6 µM,> 100 µM

# Source: PubChem BioAssay (NCI)
